{
  "source": "patent US20200024246A1",
  "about": "“POGOSTONE DERIVATIVES AND METHODS OF USING THE SAME” (Hamyard Associates LLC, priority 2018, published 2020)",
  "key": {"[1]": {"tested_on": "3-4 instar Aedes aegypti larvae", "assay": "Mosquito larvicide bioassay", "format": "in vivo", "conditions": "Aedes aegypti, 24 h", "description": "Mosquito larvicide bioassays were performed by introducing various concentrations of test compounds (pyrone derivatives and rotenone) into acetone at various concentrations. 200 uL of these solutions were added to individual cups containing 10, 3-4 instar Aedes aegypti larvae and 25 mL of DI water. 2 mg of Tetramin™ was provided to each cup as a food source. […] Ataxia was used as the indicator of larval mortality. At least 5 concentrations were used which caused between 10 and 90% mortality. LC50 values were calculated using a PROC PROBIT model in SAS 9.4."}, "[2]": {"tested_on": "adult female mosquitoes", "assay": "whole plant or invertebrate", "conditions": "for ranking in knockdown and mortality screenings: words; for LD50: read-out: 24-hour Mortality LD50 (μg/g mosquito)", "description": "The first group of DHAA-based derivatives that were tested included Formula A2, Formula B3, Formula C3, and Formula D3. A solution of 0.5% or 1.5% of each of these compounds was applied to the mosquitoes, as described above. […] Acetone was used as a control."}, "[3]": {"tested_on": "adult flies", "assay": "Contact toxicity on treated filter paper", "format": "in vivo", "conditions": "filter paper treated with 1 mL in acetone; 24 hours", "description": "Filter papers were treated with 1 mL of the disclosed compounds in acetone at varying concentrations, and the filter papers were placed in a dish. Ten adult flies were added to each dish and a sugar pad was added to each dish to ensure that any mortality could be attributed to the compound instead of starvation. Mortality was assessed at 24 hours."}, "[4]": {"tested_on": "adult, female mosquitoes", "assay": "Topical application on adult female mosquitoes (24-h mortality, 1-h knockdown)", "format": "in vivo, mosquito", "conditions": "for ED50: read-out: KD50 (ug/g mosquito); for LD50: read-out: LD50 (ug/g mosquito)"}, "[5]": {"tested_on": "adult female Aedes aegypti", "assay": "Topical combination of Formula 13 with synthetic insecticides (FIGS. 6-9)", "format": "in vivo", "conditions": "0.2 μL acetone, Formula 13 500 μg/mL, dibrom 10 μg/mL, thiamethoxam 100 μg/mL, permethrin 2.5 μg/mL, alone or in combination", "description": "A low-dose concentration of Formula 13 (500 μg/mL) was applied in combination with chlorfenapyr (75 μg/mL), dibrom (10 μg/mL), thiamethoxam (100 μg/mL), and permethrin (2.5 μg/mL) to the pronotum of adult female Aedes aegypti in 0.2 μL of acetone. These concentrations were chosen as they produced little-to-no mortality at 24 hours after application. Knockdown (immobilization) was recorded at 1 hour after application and mortality was recorded at 24, 48, and 72 hours after initial application. These applications were run in parallel to a topical application of a combined mixture of 500 μg/mL Formula 13 and 75 μg/mL of chlorfenpayr to the pronotum of adult female mosquitoes. For this experiment, total of 25 mosquitoes were treated within each replicate, with a minimum of 3 replicates utilized for each treatment. Synergism was defined as the higher percentage mortality in the insecticidal combination of both Formula 13 and chlorfenapyr compared to each individual component applied by itself."}, "[6]": {"tested_on": "house flies", "assay": "Knockdown and mortality of DHAA-based derivatives on house flies", "format": "in vivo, house fly", "source_text": "Accordingly, further derivatives with structures similar to Formula C3 were synthesized and tested for knockdown potential and mortality in house flies and mosquitoes using an experimental design similar to the one described above. These compounds include Formula C5, Formula C6, Formula C7, Formula C8, Formula C9, and Formula C10."}, "[7]": {"tested_on": "adult house flies", "assay": "Topical application of pogostone derivatives with PBO or plant essential oil on house flies", "format": "in vivo, house fly", "conditions": "house flies, topical, derivative alone or in combination with PBO", "description": "Combinations of select pogostone derivatives with select concentrations of PBO or plant essential oils was performed. […] Synergists were applied as a subsequent application directly after the application of pogostone derivatives. Concentrations of synergists (plant oils or PBO) were chosen that produced no mortality at 24 hours when applied alone.\nTo assess the ability of PBO to increase the toxicity of a wide variety of pogostone derivatives, PBO and the pogostone derivatives were applied in combination to the pronotum of house flies.\nFinally, the potential of plant essential oils to synergize the effect of Formula 30 was assessed."}, "[8]": {"tested_on": "house flies", "assay": "Topical application on house flies", "conditions": "House Fly Toxicity; topical"}, "[9]": {"conditions": "Mosquito Knockdown Properties (1 hour), topical application"}, "[10]": {"conditions": "Mosquito Toxicity (24 hours), topical application to pronotum"}},
  "note": "Where two headings read alike, the source gives them in different places.",
  "data": [
    {"compound": "C=C(C)[C@H]1Cc2c(ccc3c2O[C@@H]2COc4cc(OC)c(OC)cc4[C@@H]2C3=O)O1", "note": "[Rotenone, reference compound]", "values": [
      {"measurement": "LC50", "setting": "[1]", "value": 0.35, "unit": "µg/mL"}
    ]},
    {"compound": "C=C(C)C(O)CC(=O)c1c(O)cc(C)oc1=O", "note": "(centres unmarked) [Formula C19]", "values": [
      {"measurement": "pest or weed control at 0.5 %", "setting": "[2]; Culicidae, topical, 1 h, read-out: Knockdown at 0.5%", "value": 83, "unit": "%"},
      {"measurement": "pest or weed control at 1.5 %", "setting": "[2]; Culicidae, topical, 1 h, read-out: Knockdown at 1.5%", "value": 83, "unit": "%"},
      {"measurement": "mortality at 0.5 %", "setting": "[2]; Culicidae, topical, 24 h, read-out: Mortality at 0.5%", "value": 83, "unit": "%"},
      {"measurement": "mortality at 1.5 %", "setting": "[2]; Culicidae, topical, 24 h, read-out: Mortality at 1.5%", "value": 77, "unit": "%"},
      {"measurement": "ranking in knockdown and mortality screenings", "setting": "[2]", "value": "appear to be the most potent insecticidal compounds"},
      {"measurement": "percent mortality, 0.10% Concentration", "setting": "[3]", "value": 0, "unit": "%"},
      {"measurement": "percent mortality, 0.25% Concentration", "setting": "[3]", "value": 0, "unit": "%"},
      {"measurement": "percent mortality, 0.50% Concentration", "setting": "[3]", "value": 0, "unit": "%"}
    ]},
    {"compound": "CC(C)CCC(=O)C1=Cc2ccccc2OC1", "note": "[Formula 17]", "values": [
      {"measurement": "ED50", "setting": "[4]; topical, 1 h", "value": "> 1500", "unit": "mg/kg"},
      {"measurement": "LD50", "setting": "[4]; topical, 24 h", "value": "> 1500", "unit": "mg/kg"}
    ]},
    {"compound": "CN1COCN(Cc2cnc(Cl)s2)C1=N[N+](=O)[O-]", "note": "[Thiamethoxam, 3-((2-chloro-5-thiazolyl)methyl)-5-methyl-4-nitroiminotetrahydro-1,3,5-oxadiazine]", "values": [
      {"measurement": "24-hr percentage mortality", "setting": "[5]", "value": 25.6, "unit": "%"}
    ]},
    {"compound": "CCOCC(=O)c1c(O)cc(C)oc1=O", "note": "[Formula C8]", "values": [
      {"measurement": "Mosquito Knockdown at 0.5% concentration", "setting": "[2]", "value": 43, "unit": "%"},
      {"measurement": "Mosquito Mortality at 0.5% concentration", "setting": "[2]", "value": 73, "unit": "%"},
      {"measurement": "Mosquito Knockdown at 1.5% concentration", "setting": "[2]", "value": 80, "unit": "%"},
      {"measurement": "Mosquito Mortality at 1.5% concentration", "setting": "[2]", "value": 80, "unit": "%"},
      {"measurement": "1-hour Knockdown EC50 (μg/g mosquito)", "setting": "[2]; topical", "value": 661, "unit": "μg/g mosquito"},
      {"measurement": "LD50", "setting": "[2]; topical, 24 h", "value": 256, "unit": "mg/kg"},
      {"measurement": "ranking in knockdown and mortality screenings", "setting": "[2]", "value": "performed the best in the initial knockdown and mortality screenings"},
      {"measurement": "House Fly Knockdown at 0.5% concentration", "setting": "[6]", "value": 0, "unit": "%"},
      {"measurement": "House Fly Mortality at 0.5% concentration", "setting": "[6]", "value": 3, "unit": "%"},
      {"measurement": "House Fly Knockdown at 1.5% concentration", "setting": "[6]", "value": 2, "unit": "%"},
      {"measurement": "House Fly Mortality at 1.5% concentration", "setting": "[6]", "value": 13, "unit": "%"}
    ]},
    {"compound": "O=C(c1c(O)c2ccccc2oc1=O)C(Cl)Cl", "note": "[Formula 31]", "values": [
      {"measurement": "ED50", "setting": "[4]; [9]", "value": "> 1500", "unit": "mg/kg"},
      {"measurement": "LD50", "setting": "[4]; [10]", "value": "> 1500", "unit": "mg/kg"},
      {"measurement": "LD50 (μg/g)", "setting": "[7]", "value": ">6,000 μg/g"},
      {"measurement": "LD50 (ug/g fly)", "setting": "[8]", "value": ">6,000 ug/g fly"}
    ]},
    {"compound": "CC(C)CCC(=O)c1c(O)cc(C(C)(C)C)oc1=O", "note": "[Formula 11]", "values": [
      {"measurement": "ED50", "setting": "[4]; [9]", "value": "> 1500", "unit": "mg/kg"},
      {"measurement": "LD50", "setting": "[4]; [10]", "value": "> 1500", "unit": "mg/kg"}
    ]},
    {"compound": "CC(C)C(=O)c1c(O)c2ccccc2oc1=O", "note": "[Formula 19]", "values": [
      {"measurement": "ED50", "setting": "[4]; topical, 1 h", "value": 384, "unit": "mg/kg"},
      {"measurement": "LD50", "setting": "[4]; topical, 24 h", "value": 24.7, "unit": "mg/kg"},
      {"measurement": "insecticidal properties compared with natural pogostone, natural pyrethrins or terpenoids", "setting": "[4]; words, refers to Table 1", "value": "possessed better insecticidal properties at least as well as natural pyrethrins"},
      {"measurement": "LD50", "setting": "[7]", "value": 1495, "unit": "µg/g"},
      {"measurement": "1-hour Knockdown EC50 (μg/g mosquito)", "setting": "[2]; topical", "value": 384.5, "unit": "μg/g mosquito"},
      {"measurement": "LD50", "setting": "[2]; topical, 24 h", "value": 25, "unit": "mg/kg"},
      {"measurement": "LD50 (ug/g fly)", "setting": "[8]", "value": 1495, "unit": "ug/g fly"}
    ]},
    {"compound": "CC(C)CCC(=O)c1c(O)cc(-c2ccccc2)oc1=O", "note": "[Formula 9]", "values": [
      {"measurement": "ED50", "setting": "[4]; [9]", "value": "> 1500", "unit": "mg/kg"},
      {"measurement": "LD50", "setting": "[4]; [10]", "value": "> 1500", "unit": "mg/kg"}
    ]},
    {"compound": "CCCCCCCCCC(=O)c1c(O)c2ccccc2oc1=O", "note": "[Formula 18]", "values": [
      {"measurement": "ED50", "setting": "[4]; topical, 1 h", "value": "> 1500", "unit": "mg/kg"},
      {"measurement": "LD50", "setting": "[4]; topical, 24 h", "value": "> 1500", "unit": "mg/kg"}
    ]},
    {"compound": "C=CCCC(=O)c1cc2ccccc2oc1=O", "note": "[Formula 22]", "values": [
      {"measurement": "LD50", "setting": "[4]; topical, 24 h", "value": "> 1500", "unit": "mg/kg"}
    ]},
    {"compound": "COP(=O)(OC)OC(Br)C(Cl)(Cl)Br", "note": "(centres unmarked) [Dibrom]", "values": [
      {"measurement": "24-hr percentage mortality", "setting": "[5]", "value": 11, "unit": "%"}
    ]},
    {"compound": "Cc1cc(O)c(C(=O)COCc2ccccc2)c(=O)o1", "note": "[Formula C7]", "values": [
      {"measurement": "Mosquito Knockdown at 0.5% concentration", "setting": "[2]", "value": 10, "unit": "%"},
      {"measurement": "Mosquito Mortality at 0.5% concentration", "setting": "[2]", "value": 23, "unit": "%"},
      {"measurement": "Mosquito Knockdown at 1.5% concentration", "setting": "[2]", "value": 20, "unit": "%"},
      {"measurement": "Mosquito Mortality at 1.5% concentration", "setting": "[2]", "value": 15, "unit": "%"},
      {"measurement": "House Fly Knockdown at 0.5% concentration", "setting": "[6]", "value": 2.5, "unit": "%"},
      {"measurement": "House Fly Mortality at 0.5% concentration", "setting": "[6]", "value": 13, "unit": "%"},
      {"measurement": "House Fly Knockdown at 1.5% concentration", "setting": "[6]", "value": 1, "unit": "%"},
      {"measurement": "House Fly Mortality at 1.5% concentration", "setting": "[6]", "value": 9, "unit": "%"}
    ]}
  ]
}
